Source: patent US6391595B1, “Transferase and amylase, process for producing the enzymes, use thereof, and gene coding for the same” (Kirin Beer Kabushiki Kaisha, priority 1994, dated 2002)

Experiments:
[1] = test system: transferase derived from the Sulfolobus solfataricus strain KM1; experiment: Influence of activators and inhibitors on glucosyltrehalose-producing activity; assay type: biochemical; settings: Concentration 0.5 mM
[2] = target: T1, recombinant novel amylase (Saccharolobus solfataricus, UniProt Q55088); experiment: Substrate specificity of the recombinant novel amylase (crude enzyme solution); settings: for Liberated oligosaccharide / Production rate of mono- and disaccharides: 35.2 Units/ml crude enzyme solution, 10 mM substrate (amylopectin and soluble starch 3.0%); for Production rate of mono- and disaccharides: 1 Unit = 1 μmol per hour
T1 sequence (Q55088 1-559): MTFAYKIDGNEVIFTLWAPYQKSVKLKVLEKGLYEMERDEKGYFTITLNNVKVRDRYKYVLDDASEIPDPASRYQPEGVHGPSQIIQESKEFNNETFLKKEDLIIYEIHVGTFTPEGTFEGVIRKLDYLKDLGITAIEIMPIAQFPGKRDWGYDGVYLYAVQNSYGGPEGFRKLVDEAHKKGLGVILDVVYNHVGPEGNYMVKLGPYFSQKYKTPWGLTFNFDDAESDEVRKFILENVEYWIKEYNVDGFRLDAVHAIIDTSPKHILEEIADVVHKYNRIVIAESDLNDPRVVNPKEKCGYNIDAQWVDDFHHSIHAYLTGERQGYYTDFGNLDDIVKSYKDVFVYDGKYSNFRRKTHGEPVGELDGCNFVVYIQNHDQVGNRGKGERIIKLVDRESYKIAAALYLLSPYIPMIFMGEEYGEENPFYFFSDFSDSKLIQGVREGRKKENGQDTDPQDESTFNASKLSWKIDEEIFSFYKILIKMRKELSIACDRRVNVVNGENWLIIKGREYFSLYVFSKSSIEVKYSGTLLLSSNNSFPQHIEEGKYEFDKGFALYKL

[3] = test system: transferase derived from the Sulfolobus solfataricus strain KM1; experiment: Conversion of maltooligosaccharides into α-1,α-1-transferred isomers by purified transferase; assay type: biochemical; settings: substrate 100 mM; for Enzyme activity: enzyme 13.5 Units/ml (on maltotriose), 1 Unit = 1 umol α-1,α-1-transferred isomer per hour
Method: As the substrates, maltotriose (G3)-maltoheptaose (G7) were used in a concentration of 100 mM. The purified enzyme obtained in Example I-2 was then allowed to act on each of the above substrates in an amount of 13.5 Units/ml (in terms of the enzyme activity when the substrate is maltotriose) to produce a corresponding α-1,α-1-transferred isomer. Each product was analyzed by the method in Example I-1, and investigated its yield and enzyme activity. Incidentally, in Table 10, each enzymatic activity value was expressed with such a unit as 1 Unit equals the activity of converting the maltooligosaccharide into 1 umol of corresponding α-1,α-1-transferred isomer per hour.

[4] = target: T2, amylase derived from the Sulfolobus solfataricus strain KM1 (Saccharolobus solfataricus, UniProt Q55088); experiment: Substrate specificity of the purified amylase (hydrolyzing properties, TSK-gel Amide-80 HPLC); assay type: biochemical; settings: for Liberated oligosaccharide / Production rate of mono- and disaccharides: 25.0 Units/ml enzyme, 10 mM substrate (amylopectin and soluble starch 2.8%); for Production rate of mono- and disaccharides: 1 Unit = 1 μmol per hour
T2 construct: endogenous in cells; host or cells: Sulfolobus solfataricus strain KM1 cells
T2 sequence (Q55088 1-559): T1 sequence (Q55088 1-559)
Method: The hydrolyzing properties were analyzed by allowing 25.0 Units/ml (in terms of the enzymatic activity when maltotriosyltrehalose is used as the substrate) of the present purified enzyme to act on the various 10 mM substrates (except amylopectin and soluble starch were used as 2.8% solutions) listed in Table 16 below, and the hydrolyzed products were also analyzed.
Incidentally, each enzymatic activity in Table 16 is expressed with such a unit as 1 Unit equals the activity of liberating 1 μmol of each of the monosaccharide and disaccharide per hour.

[5] = target: T3, swine pancreatic α-amylase (Sus scrofa, UniProt P00690); experiment: Hydrolysis of oligosaccharides by pancreatic α-amylase (comparative); assay type: biochemical; settings: 1 Unit/ml α-amylase, 10 mM substrate, pH 6.9, 20° C.; for Production rate of di- and trisaccharides: 1 Unit = 1 umol per hour
T3 construct: purchased Sigma Co. A-6255
T3 sequence (P00690 16-511): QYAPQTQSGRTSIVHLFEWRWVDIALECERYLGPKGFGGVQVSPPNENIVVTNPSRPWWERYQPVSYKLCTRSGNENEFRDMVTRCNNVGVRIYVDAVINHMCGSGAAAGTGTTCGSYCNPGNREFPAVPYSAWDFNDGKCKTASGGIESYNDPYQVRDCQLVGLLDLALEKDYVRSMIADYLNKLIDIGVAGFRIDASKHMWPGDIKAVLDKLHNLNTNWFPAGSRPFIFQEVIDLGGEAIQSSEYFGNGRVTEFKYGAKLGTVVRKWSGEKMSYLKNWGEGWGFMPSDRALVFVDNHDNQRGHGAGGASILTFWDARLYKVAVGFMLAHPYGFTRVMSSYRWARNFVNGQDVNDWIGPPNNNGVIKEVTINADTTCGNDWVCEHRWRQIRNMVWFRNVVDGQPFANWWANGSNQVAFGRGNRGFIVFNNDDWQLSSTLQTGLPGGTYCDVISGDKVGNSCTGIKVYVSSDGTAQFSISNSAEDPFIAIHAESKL
Method: Swine pancreatic α-amylase is known to hydrolyze maltooligosaccharide from the reducing end by two or three sugar units [“Denpun.Kanren Toushitsu Kouso Jikken-hou” (“Experimental methods in enzymes for starch and relating saccharides”), p 135, written by Michinori Nakamura and Keiji Kainuma, published by Gakkai-Shuppan-Sentah]. Upon this, a swine pancreatic α-amylase (manufactured by Sigma Co., A-6255) was analyzed the hydrolyzing properties and the hydrolysates as a comparative example for the novel amylase of the present invention. […] The activity of producing disaccharide and trisaccharide was employed as the index of the enzymatic activity, and the analysis was performed by the TSK-gel Amide-80 HPLC analyzing method described in Example II-1.
Incidentally, the enzymatic activity values in Table 17 were expressed with such a unit as 1 Unit equals the activity of liberating 1 umol of each oligosaccharide per hour.

[6] = target: T2, amylase derived from the Sulfolobus solfataricus strain KM1; experiment: biochemical; assay type: biochemical; settings: Concentration 0.5 mM
[7] = test system: recombinant novel transferase; experiment: Conversion of maltooligosaccharides into α-1,α-1-transferred isomers by transferase from a transformant; assay type: biochemical, Sulfolobus solfataricus; settings: 12.7 Units/ml concentrated enzyme solution (on maltotriose); 1 Unit = 1 μmol α-1,α-1-transferred isomer per hour
Method: Maltotriose (G3)-Maltoheptaose (G7) (all manufactured by Hayashibara Baiokemikaru Co.) were used as substrates. The crude enzyme solution obtained in Example I-14 was lyophilized, and then suspended in a 50 mM sodium acetate solution (pH 5.5) to make a concentrated enzyme solution. Each of the substrates was subjected to reaction with 12.7 Units/ml (in terms of the enzymatic activity when maltotriose is used as the substrate) of the concentrated enzyme solution to produce a corresponding α-1,α-1-transferred isomer. Each reaction product was analyzed by the method described in Example I-1 to examine the yield and the enzymatic activity. Incidentally, as to the enzymatic activity shown in Table 38, 1 Unit is defined as an enzymatic activity of transferring maltooligosaccharide to produce 1 μmol per hour of a corresponding α-1,α-1-transferred isomer.

[8] = test system: transferase derived from the Sulfolobus solfataricus strain KM1; experiment: Substrate specificity of the transferase (production of α-1,α-1-transferred isomer); assay type: biochemical
Method: It was investigated whether or not the present enzyme acts on each of the substrates listed in Table 9 below to produce its α-1,α-1-transferred isomer. Here, the activity measurement was performed in the same manner as in Example I-1.

Compound	Residual activity [1] [%]	Liberated oligosaccharide [2]	Production rate of mono- and disaccharides [2] [units/ml]	Activity relative to G3 [3]	Enzyme activity [3] [units/ml]	Liberated oligosaccharide [4]	Production rate of mono- and disaccharides [4] [units/ml]	Production rate of di- and trisaccharides [5] [units/ml]	Residual activity [6] [%]	Enzyme activity [7] [unit/ml]	Liberated oligosaccharide [5]	Action of the enzyme on the substrate [2]	Action of the enzyme on the substrate [4]	Action of the enzyme on the substrate [8]
Maltopentaose [Maltopentaose (G5)]	101.9	Glucose + G2 + G3 + G4	2.12	approximately 8 times	111.3	Glucose + G2 + G3 + G4	1.79	6.12	105.8	103.5	–	–	–	–
Maltoheptaose [Maltoheptaose (G7)]	93.5	–	–	–	70.5	Glucose + G2 + G5 + G6	1.80	4.45	129.2	60.2	–	–	–	–
OC[C@H]1O[C@H](O[C@H]2[C@H](O)[C@@H](O)[C@@H](O[C@H]3[C@H](O)[C@@H](O)[C@@H](O[C@H]4[C@H](O)[C@@H](O)C(O)O[C@@H]4CO)O[C@@H]3CO)O[C@@H]2CO)[C@H](O)[C@@H](O)[C@@H]1O (stereo partly shown) [Maltotetraose (G4), Maltotetraose]	97.4	Glucose + G2 + G3	0.26	–	76.3	Glucose + G2 + G3	0.31	0.49	108.5	72.5	Glucose + G2 + G3	–	–	–
OC[C@H]1O[C@H](O[C@H]2[C@H](O)[C@@H](O)[C@@H](O[C@H]3[C@H](O)[C@@H](O)C(O)O[C@@H]3CO)O[C@@H]2CO)[C@H](O)[C@@H](O)[C@@H]1O (mixture of isomers) [Maltotriose (G3), Maltotriose]	–	Glucose + G2	0.27	–	13.5	Glucose + G2	0.30	0	–	12.7	not decomposed	–	–	–
OC[C@H]1O[C@H](OC[C@H]2O[C@H](OC[C@H]3O[C@H](OC[C@H]4OC(O)[C@H](O)[C@@H](O)[C@@H]4O)[C@H](O)[C@@H](O)[C@@H]3O)[C@H](O)[C@@H](O)[C@@H]2O)[C@H](O)[C@@H](O)[C@@H]1O (stereo partly shown) [Isomaltotetraose]	–	not decomposed	0	–	–	not decomposed	0	–	–	–	–	did not act	did not act	did not act
OC[C@H]1O[C@H](OC[C@H]2O[C@H](O[C@H]3[C@H](O)[C@@H](O)C(O)O[C@@H]3CO)[C@H](O)[C@@H](O)[C@@H]2O)[C@H](O)[C@@H](O)[C@@H]1O (stereo partly shown) [Panose]	–	not decomposed	0	–	–	not decomposed	0	–	–	–	–	did not act	did not act	did not act
OC[C@H]1O[C@H](OC[C@H]2O[C@H](OC[C@H]3OC(O)[C@H](O)[C@@H](O)[C@@H]3O)[C@H](O)[C@@H](O)[C@@H]2O)[C@H](O)[C@@H](O)[C@@H]1O (stereo partly shown) [Isomaltotriose]	–	not decomposed	0	–	–	not decomposed	0	–	–	–	–	did not act	did not act	did not act
Maltohexaose [Maltohexaose (G6)]	91.0	–	–	–	100.9	Glucose + G2 + G4 + G5	1.74	4.44	123.8	87.3	–	–	–	–
OC[C@H]1O[C@H](OC[C@H]2O[C@H](OC[C@H]3O[C@H](OC[C@H]4O[C@H](OC[C@H]5OC(O)[C@H](O)[C@@H](O)[C@@H]5O)[C@H](O)[C@@H](O)[C@@H]4O)[C@H](O)[C@@H](O)[C@@H]3O)[C@H](O)[C@@H](O)[C@@H]2O)[C@H](O)[C@@H](O)[C@@H]1O (stereo partly shown) [Isomaltopentaose]	–	not decomposed	0	–	–	not decomposed	0	–	–	–	–	did not act	did not act	did not act
